Test results taken from patent publication US10039753B2, “Imidazo[4,5-c]quinoline and imidazo[4,5-c][1,5]naphthyridine derivatives as LRRK2 inhibitors” (Pfizer Inc., priority 2015, dated 2018).
Counter-ions that a name gives are not always drawn.

What was measured:
[1] = target: T1, GST-tagged truncated LRRK2 (Homo sapiens, UniProt Q5S007); test: LRRK2 Assay, Format 1 (Lantha Screen), WT; assay type: biochemical
T1 construct: GST-tagged truncated LRRK2 from Invitrogen (Cat # PV4874); GST; purchased Invitrogen PV4874
T1 sequence (Q5S007 970-2527 limits assumed): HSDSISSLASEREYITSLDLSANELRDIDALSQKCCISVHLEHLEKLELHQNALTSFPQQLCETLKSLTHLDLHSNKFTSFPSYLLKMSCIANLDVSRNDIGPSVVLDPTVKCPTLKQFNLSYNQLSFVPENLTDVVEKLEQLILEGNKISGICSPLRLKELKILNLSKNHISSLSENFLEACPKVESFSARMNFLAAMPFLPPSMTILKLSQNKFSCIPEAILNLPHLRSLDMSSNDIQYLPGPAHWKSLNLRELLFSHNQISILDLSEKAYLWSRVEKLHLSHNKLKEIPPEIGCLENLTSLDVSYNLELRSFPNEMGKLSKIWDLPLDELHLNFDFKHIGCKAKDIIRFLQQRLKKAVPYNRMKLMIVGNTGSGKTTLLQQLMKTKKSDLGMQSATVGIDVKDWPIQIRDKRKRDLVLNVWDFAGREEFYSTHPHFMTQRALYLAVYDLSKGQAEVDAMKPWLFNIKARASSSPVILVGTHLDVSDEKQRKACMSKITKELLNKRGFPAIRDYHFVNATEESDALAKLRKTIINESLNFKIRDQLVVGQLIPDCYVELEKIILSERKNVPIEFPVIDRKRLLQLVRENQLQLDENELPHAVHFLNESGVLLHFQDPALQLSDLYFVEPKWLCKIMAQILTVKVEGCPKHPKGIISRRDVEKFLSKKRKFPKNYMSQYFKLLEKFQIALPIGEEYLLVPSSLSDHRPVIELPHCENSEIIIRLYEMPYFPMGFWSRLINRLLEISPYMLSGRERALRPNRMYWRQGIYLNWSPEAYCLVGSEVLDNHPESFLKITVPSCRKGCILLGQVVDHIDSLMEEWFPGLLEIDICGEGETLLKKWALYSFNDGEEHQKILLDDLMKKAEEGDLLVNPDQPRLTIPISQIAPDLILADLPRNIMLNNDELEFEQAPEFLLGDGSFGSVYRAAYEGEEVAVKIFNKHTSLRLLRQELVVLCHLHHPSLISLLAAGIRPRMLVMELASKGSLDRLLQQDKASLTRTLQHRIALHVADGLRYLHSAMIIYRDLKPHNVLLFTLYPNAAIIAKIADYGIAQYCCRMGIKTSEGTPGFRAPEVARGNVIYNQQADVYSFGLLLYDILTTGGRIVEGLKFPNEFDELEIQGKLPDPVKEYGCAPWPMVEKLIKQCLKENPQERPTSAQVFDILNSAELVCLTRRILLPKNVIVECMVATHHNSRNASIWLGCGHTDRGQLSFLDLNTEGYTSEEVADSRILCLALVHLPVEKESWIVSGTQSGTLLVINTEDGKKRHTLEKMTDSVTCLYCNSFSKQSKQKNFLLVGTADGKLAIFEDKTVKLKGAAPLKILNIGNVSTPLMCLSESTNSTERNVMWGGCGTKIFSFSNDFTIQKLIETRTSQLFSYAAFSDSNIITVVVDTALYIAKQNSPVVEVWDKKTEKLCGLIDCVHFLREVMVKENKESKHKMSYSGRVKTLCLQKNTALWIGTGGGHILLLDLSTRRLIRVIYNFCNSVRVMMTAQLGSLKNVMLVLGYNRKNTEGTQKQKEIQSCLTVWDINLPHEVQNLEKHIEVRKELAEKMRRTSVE
Experimental: LRRK2 kinase activity was measured using Lantha Screen technology from Invitrogen. GST-tagged truncated LRRK2 from Invitrogen (Cat # PV4874) was incubated with a fluorescein-labeled peptide substrate based upon ezrin/radixin/moesin (ERM), also known as LRRKtide (Invitrogen cat # PR8976A), in the presence of a dose response of compound. Upon completion, the assay was stopped and detected with a terbium labeled anti-phospho-ERM antibody (Invitrogen, cat # PR8975A). […] Aliquots (3.5 μL) of the 100% DMSO dose response were mixed with 46.5 μL water then 1 μL of this mixture was added to the 3 μL substrate mix in the 384-well plate. The kinase reaction was started with 3 μL of a working solution of LRRK2 enzyme at a concentration of 4 μg/mL. […] The reaction was allowed to progress at room temperature for two hours and then stopped with the addition of 7 μL of detection buffer (20 mM Tris pH 7.6, 0.01% NP-40, 0.02% NaN3, 6 mM EDTA with 2 nM terbium labeled anti-phospho-ERM).

mutant G2019S LRRK2 [2] = target: T2, mutant G2019S LRRK2 (Homo sapiens, UniProt Q5S007, G2019S); test: LRRK2 Assay, Format 1 (Lantha Screen), G2019S mutant
T2 sequence (Q5S007 970-2527 G2019S limits assumed): as the sequence (Q5S007 970-2527 limits assumed) above, with G1050S counted along it

[3] = target: T1, GST-tagged truncated LRRK2; test: LRRK2 Assay, Format 2 (Lantha Screen), WT; assay type: biochemical; conditions: geometric mean of 2-4 determinations unless otherwise indicated (a: >=5; b: single determination)
mutant G2019S LRRK2 [4] = target: T2, mutant G2019S LRRK2; test: LRRK2 Assay, Format 2 (Lantha Screen), G2019S mutant; assay type: biochemical; set-up: purchased Invitrogen PV4881; conditions: geometric mean of 2-4 determinations unless otherwise indicated (a: >=5; b: single determination); read-out: LRRK2, Format 2 G2019S IC50
[5] = Format 1, wild-type LRRK2, geometric mean of 2-4 determinations unless footnoted (a: ≥5 determinations; b: single determination; c: determined on trifluoroacetate salt)

With `C[C@@H]1C[C@H](n2c(Cc3cscn3)nc3cnc4ccc(Cl)cc4c32)CCO1` [Example 53, 8-chloro-1-[(2R,4R)-2-methyltetrahydro-2H-pyran-4-yl]-2-(1,3-thiazol-4-ylmethyl)-1H-imidazo[4,5-c]quinoline] the IC50 [1, 5] was 3.1 nM and the IC50 (mutant G2019S LRRK2 [2]) was 1.9 nM.
With `C[C@H]1C[C@H](n2c(Cc3ccon3)nc3cnc4ccc(C#N)cc4c32)CCO1` [Example 24, 1-[(2S,4R)-2-methyltetrahydro-2H-pyran-4-yl]-2-(1,2-oxazol-3-ylmethyl)-1H-imidazo[4,5-c]quinoline-8-carbonitrile] the IC50 [1, 5] was 72 nM and the IC50 (mutant G2019S LRRK2 [2]) was 62 nM.
`Cc1nc2cnc3ccccc3c2n1[C@H]1CCO[C@@H](CC#N)C1` (racemic) [Example 91, [cis-4-(2-methyl-1H-imidazo[4,5-c]quinolin-1-yl)tetrahydro-2H-pyran-2-yl]acetonitrile] was tested, and the IC50 [1, 5] was 18.7 nM and the IC50 (mutant G2019S LRRK2 [2]) was 12.2 nM.
For `C[C@H]1C[C@@H](n2c(Cc3ccon3)nc3cnc4cccnc4c32)CCO1` [enantiomer of Example 68, 1-[(2 S,4S)-2-methyltetrahydro-2H-pyran-4-yl]-2-(1,2-oxazol-3-ylmethyl)-1H-imidazo[4,5-c][1,5]naphthyridine], the IC50 ([1]; 100 nM LRRKtide, 50 μM ATP, 1.7 μg/mL LRRK2 enzyme, two hours at room temperature) was 853 nM and the IC50 (mutant G2019S LRRK2 [2]) was 632 nM.
In the case of `C[C@@H]1C[C@H](n2c(Cc3cscn3)nc3c(N)nc4ccc(Cl)cc4c32)CCO1` [Example 85, 8-chloro-1-[(2R,4R)-2-methyltetrahydro-2H-pyran-4-yl]-2-(1,3-thiazol-4-ylmethyl)-1H-imidazo[4,5-c]quinolin-4-amine, trifluoroacetate salt], the IC50 [1, 5] is reported as 12.3 nM and the IC50 (mutant G2019S LRRK2 [2]) is reported as 10 nM.
Compound `CC1(C)CC(n2c(Cc3cscn3)nc3cnc4ccc(F)cc4c32)CCO1` (stereo not shown) [Example 80, 1-(2,2-dimethyltetrahydro-2H-pyran-4-yl)-8-fluoro-2-(1,3-thiazol-4-ylmethyl)-1H-imidazo[4,5-c]quinoline, trifluoroacetate salt] has an IC50 [1, 5] of 52.1 nM and an IC50 (mutant G2019S LRRK2 [2]) of 39.5 nM.
`O[C@@H]1CCC[C@@H](n2c(Cc3ccon3)nc3cnc4ccccc4c32)C1` (racemic) [Example 49, trans-3-[2-(1,2-oxazol-3-ylmethyl)-1H-imidazo[4,5-c]quinolin-1-yl]cyclohexanol] was tested, and the IC50 [1, 5] was 152 nM and the IC50 (mutant G2019S LRRK2 [2]) was 81.2 nM.
`Fc1ccc2ncc3nc(Cn4cc(C(F)(F)F)cn4)n(C4CCOCC4)c3c2c1` [Example 78, 8-fluoro-1-(tetrahydro-2H-pyran-4-yl)-2-{[4-(trifluoromethyl)-1H-pyrazol-1-yl]methyl}-1H-imidazo[4,5-c]quinoline, trifluoroacetate salt] showed an IC50 [1, 5] of 145 nM and an IC50 (mutant G2019S LRRK2 [2]) of 115 nM.
In the case of `Cc1cc(Cc2nc3cnc4ccc(Br)cc4c3n2[C@H]2CCO[C@@H](C)C2)no1` (racemic) [Example 58, 8-bromo-2-[(5-methyl-1,2-oxazol-3-yl)methyl]-1-(cis-2-methyltetrahydro-2H-pyran-4-yl)-1H-imidazo[4,5-c]quinoline], the IC50 [1, 5] is reported as 16.8 nM and the IC50 (mutant G2019S LRRK2 [2]) is reported as 8.2 nM.
Work on `Clc1cn2cc(Cc3nc4cnc5ccccc5c4n3C3CCOCC3)nc2s1` [Example 71, 2-[(2-chloroimidazo[2,1-b][1,3]thiazol-6-yl)methyl]-1-(tetrahydro-2H-pyran-4-yl)-1H-imidazo[4,5-c]quinoline, trifluoroacetate salt] yielded an IC50 [1, 5] of 106 nM and an IC50 (mutant G2019S LRRK2 [2]) of 120 nM.
With `COc1ccc2ncc3nc(Cc4cc(C)on4)n([C@H]4CCO[C@@H](C)C4)c3c2c1` (single isomer, unassigned) [Example C12] the IC50 [1, 5] was 1260 nM and the IC50 (mutant G2019S LRRK2 [2]) was 478 nM.
In the case of `Cc1nc2cnc3ccccc3c2n1[C@H]1CCO[C@@H](C)C1` (racemic) [Example 15, 2-methyl-1-(cis-2-methyltetrahydro-2H-pyran-4-yl)-1H-imidazo[4,5-c]quinoline], the IC50 [1, 5] is reported as 187 nM and the IC50 (mutant G2019S LRRK2 [2]) is reported as 257 nM.
With `c1ccc2c(c1)ncc1nc(Cc3ccon3)n(C3CCOCC3)c12` [Example 18, 2-(1,2-oxazol-3-ylmethyl)-1-(tetrahydro-2H-pyran-4-yl)-1H-imidazo[4,5-c]quinoline] the IC50 [1, 5] was 153 nM and the IC50 (mutant G2019S LRRK2 [2]) was 250 nM.
Work on `Cc1nc2cnc3ccc(C#N)cc3c2n1[C@H]1CC[C@@H](F)C1` [Example 20, 1-[(1S,3R)-3-fluorocyclopentyl]-2-methyl-1H-imidazo[4,5-c]quinoline-8-carbonitrile] yielded an IC50 [1, 5] of 195 nM and an IC50 (mutant G2019S LRRK2 [2]) of 174 nM.
In the case of `Cc1cnn(Cc2nc3cnc4ccc(C#N)cc4c3n2[C@H]2CCN(C)C2)c1` [Example 190, 2-[(4-methyl-1H-pyrazol-1-yl)methyl]-1-[(3S)-1-methylpyrrolidin-3-yl]-1H-imidazo[4,5-c]quinoline-8-carbonitrile], the IC50 [3] is reported as 26.6 nM and the IC50 (mutant G2019S LRRK2 [4]) is reported as 26.2 nM.
Work on `COc1ccc(Cc2nc3cnc4ccc(C#N)cc4c3n2C2CCOC(C)(C)C2)nc1` (single isomer, unassigned; ent-2) [Example 207, 1-(2,2-dimethyltetrahydro-2H-pyran-4-yl)-2-[(5-methoxypyridin-2-yl)methyl]-1H-imidazo[4,5-c]quinoline-8-carbonitrile, ENT-2] yielded an IC50 [3] of 7.53 nM and an IC50 (mutant G2019S LRRK2 [4]) of 6.84 nM.
Compound `Cc1ccn2cc(Cc3nc4cnc5ccc(Cl)cc5c4n3[C@@H]3CCO[C@H](C)C3)nc2n1` [Example 159, 8-chloro-2-[(7-methylimidazo[1,2-a]pyrimidin-2-yl)methyl]-1-[(2R,4R)-2-methyltetrahydro-2H-pyran-4-yl]-1H-imidazo[4,5-c]quinoline] has an IC50 [3] of 6.06 nM and an IC50 (mutant G2019S LRRK2 [4]) of 6.15 nM.
With `C[C@@H]1C[C@H](n2c(Cn3cc(C4CC4)nn3)nc3cnc4ccc(C#N)cc4c32)CCO1` [Example 125, 2-[(4-cyclopropyl-1H-1,2,3-triazol-1-yl)methyl]-1-[(2R,4R)-2-methyltetrahydro-2H-pyran-4-yl]-1H-imidazo[4,5-c]quinoline-8-carbonitrile, formate salt] the IC50 [3] was 7 nM and the IC50 (mutant G2019S LRRK2 [4]) was 6.19 nM.
Compound `C[C@@H]1C[C@H](n2c(C(F)c3csnn3)nc3cnc4ccc(Cl)cc4c32)CCO1` (stereo partly drawn) [Example 220, 8-chloro-2-[fluoro(1,2,3-thiadiazol-4-yl)methyl]-1-[(2R,4R)-2-methyltetrahydro-2H-pyran-4-yl]-1H-imidazo[4,5-c]quinoline, formate salt] has an IC50 [3] of 4.81 nM and an IC50 (mutant G2019S LRRK2 [4]) of 5.03 nM.
For `C[C@@H]1C[C@H](n2c(Cc3cn4ccccc4n3)nc3cnc4ccc(C#N)cc4c32)CCO1` [Example 158, 2-(imidazo[1,2-a]pyridin-2-ylmethyl)-1-[(2R,4R)-2-methyltetrahydro-2H-pyran-4-yl]-1H-imidazo[4,5-c]quinoline-8-carbonitrile, formate salt], the IC50 [3] was 6.01 nM and the IC50 (mutant G2019S LRRK2 [4]) was 5.22 nM.
`CO[C@H]1C[C@@H](n2c(Cn3cc(C)nn3)nc3cnc4ccc(Cl)cc4c32)C1` [Example 183, 8-chloro-1-[(1s,3s)-3-methoxycyclobutyl]-2-[(4-methyl-1H-1,2,3-triazol-1-yl)methyl]-1H-imidazo[4,5-c]quinoline] gave an IC50 [3] of 33.8 nM and an IC50 (mutant G2019S LRRK2 [4]) of 30.8 nM.
In the case of `C[C@@H]1C[C@H](n2c(Cc3ccccn3)nc3cnc4ccc(C#N)cc4c32)CCO1` [Example 223, 1-[(2R,4R)-2-methyltetrahydro-2H-pyran-4-yl]-2-(pyridin-2-ylmethyl)-1H-imidazo[4,5-c]quinoline-8-carbonitrile], the IC50 [3] is reported as 9.69 nM and the IC50 (mutant G2019S LRRK2 [4]) is reported as 9.45 nM.
`Cc1cnn(Cc2nc3cnc4ccc(Cl)cc4c3n2[C@@H]2CCO[C@H](C)C2)n1` [Example 103, 8-Chloro-1-[(2R,4R)-2-methyltetrahydro-2H-pyran-4-yl]-2-[(4-methyl-2H-1,2,3-triazol-2-yl)methyl]-1H-imidazo[4,5-c]quinoline] was tested, and the IC50 [3] was 11.2 nM and the IC50 (mutant G2019S LRRK2 [4]) was 10.6 nM.
Compound `C[C@@H]1C[C@H](n2c(Cc3cnco3)nc3cnc4ccc(C#N)cc4c32)CCO1` [Example 229, 1-[(2R,4R)-2-methyltetrahydro-2H-pyran-4-yl]-2-(1,3-oxazol-5-ylmethyl)-1H-imidazo[4,5-c]quinoline-8-carbonitrile, formate salt] has an IC50 [3] of 9.71 nM and an IC50 (mutant G2019S LRRK2 [4]) of 9.37 nM.
For `N#Cc1ccc2ncc3nc(Cc4cc(C(F)(F)F)on4)n([C@@H]4CC[C@H](F)C4)c3c2c1` (single isomer, unassigned; ent-1) [Example 211, 1-(cis-3-fluorocyclopentyl)-2-{[5-(trifluoromethyl)-1,2-oxazol-3-yl]methyl}-1H-imidazo[4,5-c]quinoline-8-carbonitrile, ENT-1], the IC50 [3] was 12.8 nM and the IC50 (mutant G2019S LRRK2 [4]) was 18.7 nM.
Compound `Cc1cc(Cc2nc3cnc4ccc(C#N)cc4c3n2C2CCN(C)C2)no1` (stereo not shown) [Example 217, 2-[(5-methyl-1,2-oxazol-3-yl)methyl]-1-(1-methylpyrrolidin-3-yl)-1H-imidazo[4,5-c]quinoline-8-carbonitrile, formate salt] has an IC50 [3] of 5.43 nM and an IC50 (mutant G2019S LRRK2 [4]) of 11.1 nM.
